Assay results published in publication PMC3701070 (PLoS ONE, 2013).
Like-named read-outs stand apart in the source and are kept apart here.

Assays:
A375P tumor xenograft = details: groups of 8 mice, cited from earlier work
JRT3-T35 = assay: Cell growth assay; type: cell-based; details: Homo sapiens, J-RT3-T3-5, 72 h; JRT3-T35, RAF WT, RAS WT, 3-day; read-out: gIC50
Method in brief: (§1)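 Baseline plates measured at t = 0; treated plates measured at 72 h via CellTiter-Glo. Values = IC50 for growth inhibition.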

NCI-H2052 = assay: Cell growth assay; type: cell-based; details: Homo sapiens, 72 h; NCI-H2052, RAF WT, RAS WT, 3-day; read-out: gIC50
Method in brief: as §1

OE-21 = assay: Cell growth assay; type: cell-based; details: Homo sapiens, OE21, 72 h; OE-21, RAF WT, RAS WT, 3-day; read-out: gIC50
Method in brief: as §1

A427 = assay: Cell growth assay; type: cell-based; details: Homo sapiens, A-427, 72 h; A427, RAF WT, RAS WT, 3-day; read-out: gIC50
Method in brief: as §1

HuNS-1 = assay: Cell growth assay; type: cell-based; details: Homo sapiens, HuNS1, 72 h; HuNS-1, RAF WT, RAS WT, 3-day; read-out: gIC50
Method in brief: as §1

SW1463 = assay: Cell growth assay; type: cell-based; details: Homo sapiens, 72 h; SW1463, RAF WT, RAS WT, 3-day; read-out: gIC50
Method in brief: as §1

TK-10 = assay: Cell growth assay; type: cell-based; details: Homo sapiens, 72 h; TK-10, RAF WT, RAS WT, 3-day; read-out: gIC50
Method in brief: as §1

BT-20 = assay: Cell growth assay; type: cell-based; details: Homo sapiens, 72 h; BT-20, RAF WT, RAS WT, 3-day; read-out: gIC50
Method in brief: as §1

CHL-1 = assay: Cell growth assay; type: cell-based; details: Homo sapiens, 72 h; CHL-1, RAF WT, RAS WT, 3-day; read-out: gIC50
Method in brief: as §1

OV-90 = assay: Cell growth assay; type: cell-based; details: Homo sapiens, 72 h; OV-90, BRAF(del486-490), RAS WT, 3-day; read-out: gIC50
Method in brief: as §1

H4 = assay: Cell growth assay; type: cell-based; details: Homo sapiens, 72 h; H4, RAF WT, RAS WT, 3-day; read-out: gIC50
Method in brief: as §1

YAPC = assay: Cell growth assay; type: cell-based; details: Homo sapiens, 72 h, RAF WT, RAS WT, 3-day, read-out: gIC50
Method in brief: as §1

MDA-MB-231 = assay: Cell growth assay; type: cell-based; details: Homo sapiens, 72 h; MDA-MB-231, BRAF(G464V), KRAS(G13D), 3-day; read-out: gIC50
Method in brief: as §1

SaOS2 = assay: Cell growth assay; type: cell-based; details: Homo sapiens, SAOS-2, 72 h; SaOS2, RAF WT, RAS WT, 3-day; read-out: gIC50
Method in brief: as §1

PC-3 = assay: Cell growth assay; type: cell-based; details: Homo sapiens, 72 h; PC-3, RAF WT, RAS WT, 3-day; read-out: gIC50
Method in brief: as §1

KYSE-30 = assay: Cell growth assay; type: cell-based; details: Homo sapiens, 72 h; KYSE-30, RAF WT, RAS WT, 3-day; read-out: gIC50
Method in brief: as §1

KPL-1 = assay: Cell growth assay; type: cell-based; details: Homo sapiens, 72 h; KPL-1, RAF WT, RAS WT, 3-day; read-out: gIC50
Method in brief: as §1

HT-1080 = assay: Cell growth assay; type: cell-based; details: Homo sapiens, 72 h; HT-1080, RAF WT, RAS WT, 3-day; read-out: gIC50
Method in brief: as §1

HT-29 = assay: Cell growth assay; type: cell-based; details: Homo sapiens, 72 h; HT-29, BRAF(V600E), RAS WT, 3-day; read-out: gIC50
Method in brief: as §1

GDM-1 = assay: Cell growth assay; type: cell-based; details: Homo sapiens, 72 h; GDM-1, RAF WT, RAS WT, 3-day; read-out: gIC50
Method in brief: as §1

Colo 205 = assay: Cell growth assay; type: cell-based; details: Homo sapiens, 72 h; Colo 205, BRAF(V600E), RAS WT, 3-day; read-out: gIC50
Method in brief: as §1

CHP-212 = assay: Cell growth assay; type: cell-based; details: Homo sapiens, 72 h; CHP-212, RAF WT, NRAS(Q61K), 3-day; read-out: gIC50
Method in brief: as §1

SIK (h) = biological target: T1, SIK (h) (Homo sapiens, UniProt P57059); assay: Kinase panel (Millipore) enzyme activity; type: biochemical
T1 construct: purchased Millipore

[1] = tested on: A375P tumors (BRAF^V600E)
Source text: Cells were implanted subcutaneously in female CD1 nu/nu mice and grown to form tumors. […] Tumor volumes were estimated twice weekly from two-dimensional caliper measurements using the prolate ellipsoid equation [drawing 1] , where v = volume (mm^3), l = length (mm), and w = width (mm), and reported as means for n of 7 or 8 mice per group. Tumor growth inhibition represents the percentage volume differential between treated and control tumors at the time when vehicle-treated tumors exceeded a volume of 1 000 mm^3. Partial regression is defined as a 50% decrease from an individual tumor's starting volume for at least 1 week (three consecutive measurements). […] All efforts were made to minimize suffering and mice were euthanized by carbon dioxide asphyxiation if at least one death occurred per treatment group, if an animal appeared moribund or in distress, or if the tumor became ulcerated.
Treatment continued until the mean tumor volume of each group reached 1 200 mm^3 or one death occurred. Mean tumor volumes are plotted with their standard error mean and complete (CR) or partial (PR) regressions are indicated for each group of n = 8 mice after 14 days of treatment.

T1 sequence (P57059 whole entry): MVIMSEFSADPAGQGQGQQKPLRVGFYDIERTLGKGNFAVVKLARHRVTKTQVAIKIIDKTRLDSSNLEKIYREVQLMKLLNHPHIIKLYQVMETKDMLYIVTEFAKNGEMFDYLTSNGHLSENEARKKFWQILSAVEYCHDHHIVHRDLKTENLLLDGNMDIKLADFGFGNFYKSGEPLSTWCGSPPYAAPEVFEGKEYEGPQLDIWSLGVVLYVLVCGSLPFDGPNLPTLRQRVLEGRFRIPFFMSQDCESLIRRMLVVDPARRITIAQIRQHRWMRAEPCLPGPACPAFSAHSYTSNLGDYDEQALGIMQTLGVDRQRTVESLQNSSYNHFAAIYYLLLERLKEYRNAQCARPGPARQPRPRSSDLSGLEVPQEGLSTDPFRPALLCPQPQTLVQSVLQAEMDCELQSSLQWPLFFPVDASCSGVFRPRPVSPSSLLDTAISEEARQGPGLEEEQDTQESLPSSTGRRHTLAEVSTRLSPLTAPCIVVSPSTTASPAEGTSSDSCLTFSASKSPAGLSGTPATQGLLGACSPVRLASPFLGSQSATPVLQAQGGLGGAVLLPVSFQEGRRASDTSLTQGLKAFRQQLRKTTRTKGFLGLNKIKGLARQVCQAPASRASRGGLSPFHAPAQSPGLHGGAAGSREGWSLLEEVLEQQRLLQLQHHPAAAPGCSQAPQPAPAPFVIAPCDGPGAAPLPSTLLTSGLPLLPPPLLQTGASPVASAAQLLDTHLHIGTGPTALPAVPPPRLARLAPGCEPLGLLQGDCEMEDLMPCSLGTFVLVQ

## CC(C)(C)c1nc(-c2cccc(NS(=O)(=O)c3c(F)cccc3F)c2F)c(-c2ccnc(N)n2)s1 [dabrafenib]
A375P tumor xenograft; 10 mg/kg
  complete regressions: 1
  partial regressions: 2
A375P tumor xenograft; 100 mg/kg
  complete regressions: 4
  partial regressions: 2
JRT3-T35
  IC50: 0.295 µM
NCI-H2052
  IC50: > 10 µM
OE-21
  IC50: > 10 µM
A427
  IC50: > 10 µM
HuNS-1
  IC50: > 10 µM
SW1463
  IC50: > 10 µM
TK-10
  IC50: > 10 µM
BT-20
  IC50: > 10 µM
CHL-1
  IC50: > 10 µM
OV-90
  IC50: 0.029 µM
H4
  IC50: 0.619 µM
YAPC
  IC50: > 10 µM
MDA-MB-231
  IC50: > 10 µM
SaOS2
  IC50: > 10 µM
PC-3
  IC50: > 10 µM
KYSE-30
  IC50: > 10 µM
KPL-1
  IC50: > 10 µM
HT-1080
  IC50: 2 µM
HT-29
  IC50: 0.066 µM
GDM-1
  IC50: 2 µM
Colo 205
  IC50: 0.007 µM
CHP-212
  IC50: > 10 µM
SIK (h)
  IC50: 0.027 µM
[1]; 30 mg/kg for 33 days
  period for which tumor growth inhibition was observed: 14 days
[1]; 300 mg/kg for 43 days
  period for which tumor growth inhibition was observed: 20 days
